# In patent US20090291083A1, “BARB4 TARGET, ANTIBODY DESIGNATED BARB4, BARB4 RELATED ANTIBODIES, AND METHODS OF MAKING AND USING SAME” (PATRYS LIMITED, priority 2008, published 2009):
# Read-outs that look alike come from different tables or passages of the source.
# How the values were obtained:
# Experiment in all cases: MTT cell proliferation assay (Table 2)
# Type in all cases: cell-based, human
# COLO 205 = tested on: COLO 205
# Experimental: (§1) BARB4 was also evaluated for inhibition of proliferation of other cancer cell lines, including BxPC-3, COLO 205, H460, MDA-MB-231 and MIAPaCa-2 cells, as well as HT-29, HCT-116, BxPC-3, PANC-1, A549, PC-3 and HCT116 cells. In brief, various human cancer cell lines obtained from the American Type Culture Collection (ATCC) were established using standard in vitro culture methods and ATCC recommended media in 175 cm2 BD tissue culture treated flasks. In particular, MDAMB-231 cultures were incubated in a humidified 37° C., 100% air incubator, and BxPC-3, COLO 205, H460 and MIAPaCa-2 cultures were incubated in a humidified 37° C., 5% CO2, 95% air incubator. Cultures were sub-cultivated regularly to maintain log phase growth. All cell lines were brought up from cryopreservation using the original recommended ATCC media type and supplements. Cell line specific seeding densities were based on historical data from MIR Preclinical Services for growth over a 72 hr period.
# (§2) On the day of IC50 plate seeding, the adherent cells were removed from the flasks for each cell line using trypsin EDTA, 1× (Cell Gro #25-053-CI). Trypsin was deactivated using complete media and the cells were pooled (each line done separately). The pooled cells in complete media were counted using trypan blue exclusion with a Neubauer Bright-Line® hemacytometer. The percent viability for each cell line was as follows:
# (§3) Based on live cell counts, each suspension was then diluted in complete media (containing required supplements) to achieve the desired seeding density for each cell line. Once seeded, the cells were allowed to attach to the plates overnight and then treated with BA4 or cisplatin 24 hr post-seeding.
# (§4) BARB4 was serially diluted 1:2 (2× final conc. in dilution reservoir=1600 μg/ml) in media to achieve a final 800 μg/ml starting concentration in the top dosage wells of the treatment plate by diluting 1:2 when transferred from the reservoir to the treatment plate. Antibody was added to columns 1 through 10 of the treatment plate. Column 11 was for cells+media only control and column 12 was for a media only blank. Cisplatin (positive control) was manufactured by Sigma (# M4394, lot 087K1349) and supplied as a fine, dark yellow powder, in an amber vial, stored at room temperature and housed in a covered box to prevent exposure to light. Cisplatin was previously dissolved in 0.9% saline to make a clear, colorless 4 mM stock solution, aliquoted and frozen at −20° C. Frozen aliquots were quickly thawed by holding the tubes in hand, placed on wet ice and diluted (2× conc. dilution reservoir) to achieve a final 1 mM starting concentration in the top dosage wells of the treatment plate (diluted 1:2 when transferred from the dilution reservoir to the treatment plate). Serial dilutions of 1:4 were made from wells 1 through 10 of the dilution reservoir prior to transfer to the treatment plate.
# (§5) The BARB4 stock solution (10.5 mg/ml) was prepared by dilution in complete media according to the table below for a final starting treatment concentration of 800 μg/ml. The 4 mM stock solution of cisplatin in 0.9% saline was diluted in complete media for a final starting treatment concentration of 1 mM.
# (§6) Cells were exposed to BARB4 or cisplatin for a 24 hr period. The plates were incubated overnight at 37° C. At 24 hr and 48 hr post-treatment, the MTT assay was performed as described below.
# (§7) The anti-proliferative activity of BARB4 and cisplatin was evaluated using the MTT cell proliferation assay (ATCC catalog #30-1010K). The assay is based on the reduction of yellow tetrazolium MTT (3-(4,5-dimethylthiazolyl-2)-2,5-diphenyltetrazolium bromide) by metabolically active cells forming purple formazan crystals. […]
# H460 = tested on: H460
# Experimental: as §1, §2, §3, §4, §5, §6, §7
# MDA-MB-231 = tested on: MDA-MB-231
# Experimental: as §1, §2, §3, §4, §5, §6, §7
# MIAPaCa-2 = tested on: MIAPaCa-2
# Experimental: as §1, §2, §3, §4, §5, §6, §7
# BxPC-3 = tested on: BxPC-3
# Experimental: as §1, §2, §3, §4, §5, §6, §7
# [1] = MTT 24 hr post-treatment, read-out: IC50, Cisplatin (24 hr)
# [2] = MTT 48 hr post-treatment, read-out: IC50, Cisplatin (48 hr)
compound,measurement,setting,value
"N.N.[Cl][Pt][Cl] [Cisplatin, reference compound]",IC50,COLO 205; [1],58.5 µM
same,IC50,COLO 205; [2],62.9 µM
same,IC50,H460; [1],63.3 µM
same,IC50,H460; [2],6.37 µM
same,IC50,MDA-MB-231; [1],97.5 µM
same,IC50,MDA-MB-231; [2],233 µM
same,IC50,MIAPaCa-2; [1],43.9 µM
same,IC50,MIAPaCa-2; [2],29.8 µM
same,IC50,"BxPC-3; BxPC-3, MTT 24 hr post-treatment, read-out: IC50, Cisplatin (24 hr)",39.2 µM
same,IC50,"BxPC-3; BxPC-3, MTT 48 hr post-treatment, read-out: IC50, Cisplatin (48 hr)",9.41 µM
same,IC50,"BxPC-3; BxPC-3 repeat, MTT 24 hr post-treatment, read-out: IC50, Cisplatin (24 hr)",13.6 µM
same,IC50,"BxPC-3; BxPC-3 repeat, MTT 48 hr post-treatment, read-out: IC50, Cisplatin (48 hr)",5.65 µM
